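All cell lines were grown in 96-well plates and treated with compound for 48 hours. At the GI50, growth is halved.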 The source made the active and inactive calls. Cut-off read from the data, not from the text of the source: active = GI50 up to about 1.1 µM and inactive = higher.
Columns and labels:
Assay in all cases: inhibition of tumour cell growth, NCI panel, 48 h
KM12 = tested on: KM12
OVCAR-5 = tested on: OVCAR-5
NCI-H226 = tested on: NCI-H226
MDA-MB-231 = tested on: MDA-MB-231
M14 = tested on: M14
TK-10 = tested on: TK-10
UACC-257 = tested on: UACC-257
SNB-75 = tested on: SNB-75
SF-268 = tested on: SF-268
COLO 205 = tested on: COLO 205
IGROV-1 = tested on: IGROV-1
NCI/ADR-RES = tested on: NCI/ADR-RES
CCRF-CEM = tested on: CCRF-CEM
SW-620 = tested on: SW-620
SK-MEL-2 = tested on: SK-MEL-2
U-251 = tested on: U-251
SF-539 = tested on: SF-539
MOLT-4 = tested on: MOLT-4

Compound | GI50 (KM12) | GI50 (OVCAR-5) | GI50 (NCI-H226) | GI50 (MDA-MB-231) | GI50 (M14) | GI50 (TK-10) | GI50 (UACC-257) | GI50 (SNB-75) | GI50 (SF-268) | GI50 (COLO 205) | GI50 (IGROV-1) | GI50 (NCI/ADR-RES) | GI50 (CCRF-CEM) | GI50 (SW-620) | GI50 (SK-MEL-2) | GI50 (U-251) | GI50 (SF-539) | GI50 (MOLT-4)
CC1=CC=CC(C)(C)CC1(O[Si](C)(C)C)C(F)(F)F (configuration not stated) | > 100 µM (inactive) | > 100 µM (inactive) | > 100 µM (inactive) | > 100 µM (inactive) | > 100 µM (inactive) | > 100 µM (inactive) | > 100 µM (inactive) | > 100 µM (inactive) | > 100 µM (inactive) | 72.3 µM (inactive) | 26.6 µM (inactive) | > 100 µM (inactive) | > 100 µM (inactive) | > 100 µM (inactive) | > 100 µM (inactive) | 98.9 µM (inactive) | > 100 µM (inactive) | 
CSc1ccc2c(c1)c(CCN)c(C)n2Cc1ccccc1Cl | 1.82 µM (inactive) | 1.85 µM (inactive) | 1.66 µM (inactive) | 1.84 µM (inactive) | 1.72 µM (inactive) | 1.73 µM (inactive) | 1.73 µM (inactive) | 1.61 µM (inactive) | 1.76 µM (inactive) | 1.67 µM (inactive) | 1.61 µM (inactive) | 2.03 µM (inactive) | 1.51 µM (inactive) | 1.78 µM (inactive) | 1.8 µM (inactive) | 1.66 µM (inactive) | 1.37 µM (inactive) | 
COc1cc(C2C3=C(COC3=O)OC(C)(C)Oc3cc4c(cc32)OCO4)cc(OC)c1OC (configuration not stated) | 0.212 µM (active) | 3.72 µM (inactive) | 0.885 µM (active) | 0.358 µM (active) | 0.281 µM (active) |  | 1.17 µM (inactive) | 0.253 µM (active) | 0.405 µM (active) | 0.236 µM (active) | 0.521 µM (active) | 0.299 µM (active) | 0.395 µM (active) | 0.348 µM (active) | 0.673 µM (active) | 0.447 µM (active) | 0.212 µM (active) | 0.453 µM (active)
O=C(NNCc1ccco1)c1cc2ccccc2[nH]1 | 65.8 µM (inactive) | > 100 µM (inactive) | > 100 µM (inactive) | > 100 µM (inactive) | > 94 µM (inactive) | > 58.1 µM (inactive) | > 62.5 µM (inactive) | 47.9 µM (inactive) | 38.8 µM (inactive) | > 100 µM (inactive) | 50.7 µM (inactive) | > 52.4 µM (inactive) | > 100 µM (inactive) | > 100 µM (inactive) | > 100 µM (inactive) |  | > 61.9 µM (inactive) | > 100 µM (inactive)
O=C(O)CN(CC(=O)O)Cc1ccn(-c2cccc(-n3ccc(CN(CC(=O)O)CC(=O)O)n3)n2)n1 | > 100 µM (inactive) | > 100 µM (inactive) | > 100 µM (inactive) | > 100 µM (inactive) | > 100 µM (inactive) | > 100 µM (inactive) | > 100 µM (inactive) | > 100 µM (inactive) | > 100 µM (inactive) | > 100 µM (inactive) | > 100 µM (inactive) | > 100 µM (inactive) |  | > 100 µM (inactive) | > 100 µM (inactive) | 21.1 µM (inactive) | > 100 µM (inactive) | > 100 µM (inactive)
CCOC(=O)c1c(Br)c(-c2ccc([N+](=O)[O-])cc2)c(Br)n1C | > 10 µM (inactive) | > 10 µM (inactive) | > 10 µM (inactive) | > 10 µM (inactive) | > 10 µM (inactive) | > 10 µM (inactive) | > 10 µM (inactive) | 2.49 µM (inactive) | > 10 µM (inactive) | > 10 µM (inactive) | > 10 µM (inactive) | > 10 µM (inactive) | > 10 µM (inactive) |  | > 10 µM (inactive) | > 10 µM (inactive) | > 10 µM (inactive) | > 10 µM (inactive)

— ChEMBL document CHEMBL1201862, “PubChem BioAssay data set” (2004)
